Columns and labels:
Assay in all cases: relative IC50 (inflection point of fitted viability curve, relative to fitted max inhibition); higher = less sensitive
Details in all cases: 72 h
NK-YS (IL-2 2.5 ng/mL) = test system: NK-YS (IL-2 2.5 ng/mL)
Experimental: (§1)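 Drug sensitivity and resistance testing: 5 concentrations over a 10,000-fold range, 72 h at 37 °C, viability by CellTiter-Glo normalised to DMSO and benzethonium chloride controls. IC50 is the inflection point of a logistic fit (min fixed at 0, max fitted), so it is relative to the fitted maximal inhibition. Kept only where fitted max inhibition is at least 50%.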

[1] = test system: normal primary NK cells, pool 1 (3 donors), resting (IL-2 0 ng/mL)
Experimental: as §1

KHYG-1 (IL-2 2.5 ng/mL) = test system: KHYG-1 (IL-2 2.5 ng/mL)
Experimental: as §1

DERL-7 (IL-2 2.5 ng/mL) = test system: DERL-7 (IL-2 2.5 ng/mL)
Experimental: as §1

NK-92 (IL-2 2.5 ng/mL) = test system: NK-92 (IL-2 2.5 ng/mL)
Experimental: as §1

SNK-6 (IL-2 2.5 ng/mL) = test system: SNK-6 (IL-2 2.5 ng/mL)
Experimental: as §1

KAI3 (IL-2 2.5 ng/mL) = test system: KAI3 (IL-2 2.5 ng/mL)
Experimental: as §1

NKL (IL-2 2.5 ng/mL) = test system: NKL (IL-2 2.5 ng/mL)
Experimental: as §1

IMC-1 (IL-2 20 ng/mL) = test system: IMC-1 (IL-2 20 ng/mL)
Experimental: as §1

YT (IL-2 2.5 ng/mL) = test system: YT (IL-2 2.5 ng/mL)
Experimental: as §1

[2] = test system: normal primary NK cells, pool 3 (3 donors) (IL-2 2.5 ng/mL)
Experimental: as §1

[3] = test system: normal primary NK cells, pool 2 (3 donors) (IL-2 2.5 ng/mL)
Experimental: as §1

[4] = test system: normal primary NK cells, pool 1 (3 donors) (IL-2 2.5 ng/mL)
Experimental: as §1

Row | Compound | relative IC50 (NK-YS (IL-2 2.5 ng/mL)) [µM] | relative IC50 [1] [µM] | relative IC50 (KHYG-1 (IL-2 2.5 ng/mL)) [µM] | relative IC50 (DERL-7 (IL-2 2.5 ng/mL)) [µM] | relative IC50 (NK-92 (IL-2 2.5 ng/mL)) [µM] | relative IC50 (SNK-6 (IL-2 2.5 ng/mL)) [µM] | relative IC50 (KAI3 (IL-2 2.5 ng/mL)) [µM] | relative IC50 (NKL (IL-2 2.5 ng/mL)) [µM] | relative IC50 (IMC-1 (IL-2 20 ng/mL)) [µM] | relative IC50 (YT (IL-2 2.5 ng/mL)) [µM] | relative IC50 [2] [µM] | relative IC50 [3] [µM] | relative IC50 [4] [µM]
1 | O=C(CCCCCCC(=O)Nc1ccc([C@H]2O[C@@H](CSc3nc(-c4ccccc4)c(-c4ccccc4)o3)C[C@@H](c3ccc(CO)cc3)O2)cc1)NO [Tubacin] | 2.83 | 3.8 | 3.09 | 1.62 | 1.66 | 1.8 | 2.07 | 1.33 | 2.65 | 2.63 | – | – | –
2 | CO[C@H]1C[C@@H]2CC[C@@H](C)[C@@](O)(O2)C(=O)C(=O)N2CCCC[C@H]2C(=O)O[C@H]([C@H](C)C[C@@H]2CC[C@@H](OCCO)[C@H](OC)C2)CC(=O)[C@H](C)/C=C(\C)[C@@H](O)[C@@H](OC)C(=O)[C@H](C)C[C@H](C)/C=C/C=C/C=C/1C [Everolimus] | – | – | – | 0.00094 | – | – | – | – | > 0.1 | – | > 0.1 | – | –
3 | O=C(O)CC[C@H]1CC[C@@](c2cc(F)ccc2F)(S(=O)(=O)c2ccc(Cl)cc2)CC1 [MK-0752] | – | > 1 | – | – | – | – | – | – | – | – | – | > 1 | –
4 | CC[C@H](C)C(=O)O[C@H]1C[C@@H](C)C=C2C=C[C@H](C)[C@H](CC[C@@H]3C[C@@H](O)CC(=O)O3)[C@H]21 [Lovastatin] | 1.94 | – | – | – | – | – | – | 3.52 | – | – | > 10 | > 10 | –
5 | O=C(NOCCO)c1ccc2cncn2c1Nc1ccc(I)cc1F [GDC-0623] | – | – | 0.0256 | – | > 2.5 | – | – | 0.0221 | > 2.5 | – | – | – | –
6 | Clc1ccc(Nc2nnc(Cc3ccncc3)c3ccccc23)cc1 [Vatalanib] | – | – | – | – | – | – | – | – | – | – | > 10 | – | > 10
7 | CC[C@]1(O)C[C@H]2CN(CCc3c([nH]c4ccccc34)[C@@](C(=O)OC)(c3cc4c(cc3OC)N(C=O)[C@H]3[C@@](O)(C(=O)OC)[C@H](OC(C)=O)[C@]5(CC)C=CCN6CC[C@]43[C@@H]65)C2)C1 [Vincristine] | 0.00545 | – | 0.00314 | 0.00338 | 0.00988 | 0.00474 | 0.0079 | 0.0029 | 0.00341 | 0.0036 | – | – | –
8 | NC(=O)Nc1cc(-c2cccc(F)c2)sc1C(=O)N[C@H]1CCCNC1 [AZD7762] | 0.132 | – | 0.0292 | 0.115 | 0.131 | 0.127 | 0.0288 | 0.0432 | 0.353 | 0.145 | – | – | –
9 | N#Cc1ccc2[nH]c(O)c(-c3ccc(CN4CCOCC4)cn3)c2c1 [AZD-1080] | – | – | – | 3.42 | > 10 | > 10 | – | – | 3.18 | – | – | – | –
10 | Cn1c(=O)n(-c2ccc(C(C)(C)C#N)cc2)c2c3cc(-c4cnc5ccccc5c4)ccc3ncc21 [Dactolisib] | 0.0261 | – | 0.048 | 0.00968 | 0.015 | 0.0405 | 0.0173 | 0.0104 | 0.198 | 0.0409 | – | 0.0318 | –
11 | N#CC1(c2ccc(NC(=O)c3cccnc3NCc3ccncc3)cc2)CCCC1 [Apatinib] | – | – | – | – | 1.71 | – | – | > 10 | – | – | – | > 10 | –
12 | CS(=O)(=O)N1CCN(Cc2cc3nc(-c4cccc5[nH]ncc45)nc(N4CCOCC4)c3s2)CC1 [Pictilisib] | 1.18 | 0.694 | 2.01 | 0.472 | 0.421 | – | 1.49 | 0.821 | > 10 | 1.26 | – | 1.95 | 1.12
13 | CC(C)n1cnc2c(NCCc3ccc(O)cc3)nc(-c3csc4ccccc34)nc21 [StemRegenin 1] | – | 1.9 | 2.45 | 0.112 | 1.18 | 3.86 | 3.18 | 1.62 | – | 2.53 | – | 3.42 | –
14 | CN1CCN(c2nc(C3=C(c4c[nH]c5ccccc45)C(=O)NC3=O)c3ccccc3n2)CC1 [Sotrastaurin] | – | – | 1.8 | 1.08 | 1.69 | – | 1.62 | 0.499 | – | – | – | – | –
15 | CC[C@H](CC#N)OC(=O)N[C@@H](C)c1cccc(NC(=O)Nc2ccc(-c3cnco3)c(OC)c2)c1 [AVN944] | 0.103 | 2.17 | 0.103 | 0.104 | 0.166 | 0.0677 | 0.117 | 0.117 | 0.622 | 0.138 | – | – | –
16 | C[C@]12C=CC(=O)C=C1CC[C@@H]1[C@@H]2[C@@H](O)C[C@@]2(C)[C@H]1CC[C@]2(O)C(=O)CO [Prednisolone] | – | 0.0699 | – | 0.0657 | > 10 | – | > 10 | 0.0247 | > 10 | – | – | 0.165 | 0.185
17 | COc1cc(OC)c(/C=C/S(=O)(=O)Cc2ccc(OC)c(NCC(=O)O)c2)c(OC)c1 [Rigosertib] | 0.0404 | 0.84 | 0.0358 | 0.0367 | 0.0536 | 0.0535 | 0.0485 | 0.043 | 0.0375 | 0.0469 | – | – | –
18 | Cc1csc(-c2nnc(Nc3ccc(Oc4ncccc4-c4ccnc(N)n4)cc3)c3ccccc23)c1 [AMG-900] | 0.0054 | – | 0.0113 | 0.0111 | 0.0585 | 0.0028 | – | > 1 | 0.123 | – | – | > 1 | > 1
19 | NC(=O)NO [Hydroxyurea] | – | – | – | – | – | – | 2.63 | – | – | – | – | – | –
20 | C=CCn1c(=O)c2cnc(Nc3ccc(N4CCN(C)CC4)cc3)nc2n1-c1cccc(C(C)(C)O)n1 [MK1775] | 0.227 | – | 0.0593 | 0.185 | 0.0938 | 0.156 | 0.0957 | 0.0572 | 0.361 | 0.19 | – | – | –
21 | Cn1c(Nc2ccc(C(F)(F)F)cc2)nc2cc(Oc3ccnc(-c4ncc(C(F)(F)F)[nH]4)c3)ccc21 [RAF265] | – | 0.0474 | – | – | 0.175 | – | – | – | – | – | – | – | –
22 | CC(C)(C)c1nc(-c2cccc(NS(=O)(=O)c3c(F)cccc3F)c2F)c(-c2ccnc(N)n2)s1 [Dabrafenib] | – | – | 0.0721 | – | > 2.5 | – | – | > 2.5 | – | – | > 2.5 | > 2.5 | –
23 | Cc1ccc(Nc2nccc(N(C)c3ccc4c(C)n(C)nc4c3)n2)cc1S(N)(=O)=O [Pazopanib] | – | – | – | – | – | 0.0313 | – | – | – | – | > 10 | – | –
24 | O=C(NC[C@H](O)CO)c1ccncc1Nc1ccc(I)cc1F [Pimasertib] | – | – | 0.083 | – | – | > 10 | – | 0.049 | – | – | – | – | –
25 | CC(C)(C)NC(=O)[C@H]1CC[C@H]2[C@@H]3CC[C@H]4NC(=O)C=C[C@]4(C)[C@H]3CC[C@]12C [Finasteride] | – | – | – | – | – | > 10 | – | – | – | – | – | – | –
26 | NC(=S)N/N=C/c1ncccc1N [Triapine] | 1.45 | 1.51 | 0.642 | 3.58 | 0.748 | 3.55 | 1.32 | 3.56 | 3.72 | 3.75 | – | – | 2.49
27 | C=CCN(/C=C1/C(=O)O[C@H](COC)[C@@]2(C)C1=C(O)C(=O)C1=C2[C@H](OC(C)=O)C[C@]2(C)C(=O)CC[C@@H]12)CC=C [Sonolisib] | – | 1.63 | – | – | – | – | – | – | – | – | – | – | 1.2
28 | CNC(=O)c1ccccc1Sc1ccc2c(/C=C/c3ccccn3)n[nH]c2c1 [Axitinib] | 1.1 | – | 0.916 | 0.323 | 1.5 | 0.707 | 0.717 | 0.734 | 2.76 | 1.2 | – | – | –

Reference: the supplement of paper PMC5908809
